# Laboratory results published in patent US12371691B2, “Nano complex for targeted repairing of neurovascular lesion, and preparation and use thereof” (SHANGHAI JIAOTONG UNIVERSITY SCHOOL OF MEDICINE, priority 2019, dated 2025).
# Entries after “also recorded” stand apart in the source; their conditions may differ. No end group written: not given here.
# Experiments:
# [1] = tested on: Mouse-derived cerebrovascular endothelial cells bEnd3 cells; experiment: High-content quantitative analysis of cellular uptake of red fluorescence-labeled nano complexes; assay type: cell-based; details: DiI-labeled nano complexes modified with the targeted peptide, 5 μg/mL by lipid mass, 6 h; FIG. 3
# Method: High-content quantitative analysis was performed to determine cellular uptake of each of the above-mentioned nano complexes. Mouse-derived cerebrovascular endothelial cells bEnd3 cells were seeded in a 96-well plate at a density of 5000/well and cultured for 24 h. The original culture solution was aspirated and discarded, and 100 μL of the above-mentioned 8 red fluorescence-labeled nanostructure solutions (5 μg/mL, calculated by lipid mass) were added, respectively; the mixture was incubated in a cell incubator for 6 h, then fixed with 3.7% formaldehyde at 37° C. for 10 min, nuclear stained with Hoechest for 10 min, washed three times with PBS, and then photographed and subjected to quantitative analysis with a high-content Target Activation procedure. […]
# Moreover, a red fluorescence-labeled targeted nano complex was prepared as described in the method of Example 2. Cellular uptake of a targeted peptide-modified nano complex was subjected to high-content quantitative analysis. The cerebrovascular endothelial cells were treated with targeted peptide-modified nano complexes containing targeted peptides of different ratios (1500:1, 1000:1, 500:1, 250:1, 100:1, 30:1, 10:1, and 5:1, the molar ratio of the lipid to the targeted peptide); the mixture was incubated in a cell incubator for 6 h, then fixed, nuclear stained, and subjected to high-content quantitative analysis.
# [2] = tested on: cerebral vessels of AD model mice; experiment: Comparison of vascular binding capacity, two-photon imaging of brain after tail vein administration; assay type: in vivo, mouse; details: DiI-labeled nano complexes modified with the targeted peptide, 3 hours, FIG. 4
# Method: The AD model animal mice were administered via tail veins with the above-mentioned red fluorescence-labeled nano complexes modified with targeted peptides (containing 8 bridge structure peptides), and were sacrificed 3 hours later. The mice were perfused with normal saline until the blood was not red, and the brain thereof was taken and photographed by a two-photon microscope. The nano complexes bound on cerebral vessels were imaged, and Image J image analysis software was used to analyze the fluorescence intensity of the red fluorescence-labeled nano complexes bound on the cerebral vessels.
fluorescence intensity of nano complexes bound on cerebral vessels (bridge structure peptide screen) [2],Substance,uptake of nano complex by cerebrovascular endothelial cells (bridge structure peptide screen) [1]
dominant targeted peptides,"AC-Phe-Ala-Glu-Lys-Phe-Lys-Glu-Ala-Val-Lys-Asp-Tyr-Phe-Ala-Lys-Phe-Trp-Asp-Ile-Ala-Ile-Glu-Leu-Lys-Val-Leu-Met-Glu-Lys-Glu-Leu (Ac-FAEKFKEAVKDYFAKFWDIAIELKVLMEKEL) [R5, targeted peptide with bridge Ile-Ala-Ile; tested as modifier of DiI-labeled nano complex]",good effect on uptake; also recorded: better uptake
–,"AC-Phe-Ala-Glu-Lys-Phe-Lys-Glu-Ala-Val-Lys-Asp-Tyr-Phe-Ala-Lys-Phe-Trp-Asp-Gly-Gly-Ser-Gly-Gly-Glu-Leu-Lys-Val-Leu-Met-Glu-Lys-Glu-Leu (Ac-FAEKFKEAVKDYFAKFWDGGSGGELKVLMEKEL) [R7, targeted peptide with bridge Gly-Gly-Ser-Gly-Gly; tested as modifier of DiI-labeled nano complex]",good effect on uptake
dominant targeted peptides,"AC-Phe-Ala-Glu-Lys-Phe-Lys-Glu-Ala-Val-Lys-Asp-Tyr-Phe-Ala-Lys-Phe-Trp-Asp-Gly-Gly-Glu-Leu-Lys-Val-Leu-Met-Glu-Lys-Glu-Leu (Ac-FAEKFKEAVKDYFAKFWDGGELKVLMEKEL) [R1, targeted peptide with bridge Gly-Gly; tested as modifier of DiI-labeled nano complex]",good effect on uptake; also recorded: better uptake
–,"AC-Phe-Ala-Glu-Lys-Phe-Lys-Glu-Ala-Val-Lys-Asp-Tyr-Phe-Ala-Lys-Phe-Trp-Asp-Ile-Ala-Glu-Leu-Lys-Val-Leu-Met-Glu-Lys-Glu-Leu (Ac-FAEKFKEAVKDYFAKFWDIAELKVLMEKEL) [R2, targeted peptide with bridge Ile-Ala; tested as modifier of DiI-labeled nano complex]",good effect on uptake
–,"AC-Phe-Ala-Glu-Lys-Phe-Lys-Glu-Ala-Val-Lys-Asp-Tyr-Phe-Ala-Lys-Phe-Trp-Asp-Gly-Ser-Ser-Ser-Gly-Gly-Glu-Leu-Lys-Val-Leu-Met-Glu-Lys-Glu-Leu (Ac-FAEKFKEAVKDYFAKFWDGSSSGGELKVLMEKEL) [R8, targeted peptide with bridge Gly-Ser-Ser-Ser-Gly-Gly; tested as modifier of DiI-labeled nano complex]",good effect on uptake
dominant targeted peptides,"AC-Phe-Ala-Glu-Lys-Phe-Lys-Glu-Ala-Val-Lys-Asp-Tyr-Phe-Ala-Lys-Phe-Trp-Asp-Gly-Ala-Gly-Ala-Glu-Leu-Lys-Val-Leu-Met-Glu-Lys-Glu-Leu (Ac-FAEKFKEAVKDYFAKFWDGAGAELKVLMEKEL) [R6, targeted peptide with bridge Gly-Ala-Gly-Ala; tested as modifier of DiI-labeled nano complex]",good effect on uptake; also recorded: better uptake
–,"AC-Phe-Ala-Glu-Lys-Phe-Lys-Glu-Ala-Val-Lys-Asp-Tyr-Phe-Ala-Lys-Phe-Trp-Asp-Ile-Gly-Glu-Leu-Lys-Val-Leu-Met-Glu-Lys-Glu-Leu (Ac-FAEKFKEAVKDYFAKFWDIGELKVLMEKEL) [R3, targeted peptide with bridge Ile-Gly; tested as modifier of DiI-labeled nano complex]",good effect on uptake

Substance,fluorescence intensity of nano complexes bound on cerebral vessels (bridge structure peptide screen) [2],uptake of nano complex by cerebrovascular endothelial cells (bridge structure peptide screen) [1]
"AC-Phe-Ala-Glu-Lys-Phe-Lys-Glu-Ala-Val-Lys-Asp-Tyr-Phe-Ala-Lys-Phe-Trp-Asp-Gly-Ser-Gly-Glu-Leu-Lys-Val-Leu-Met-Glu-Lys-Glu-Leu (Ac-FAEKFKEAVKDYFAKFWDGSGELKVLMEKEL) [R4, targeted peptide with bridge Gly-Ser-Gly; tested as modifier of DiI-labeled nano complex]",dominant targeted peptides; also recorded: optimal targeted peptide,good effect on uptake; also recorded: better uptake; also recorded: best uptake
